Laboratory results reported in US20230172919A1, “AN INSULIN SENSITIZER FOR USE IN THE PREVENTION AND/OR TREATMENT OF THE DAMAGES CAUSED BY RETINAL DETACHMENT” (SORBONNE UNIVERSITE, priority 2020, published 2023).

Columns and labels:
[1] = system: RD-induced cone loss and subretinal IBA-1+ MPs in C57BL/6J mice; assay: Mouse model of RD (retinal detachment), retinal flat mount quantification; type: in vivo, mouse (C57BL/6J); settings: for number of PNA+CAR+ cones (cone survival) / numbers of subretinal IBA1+ MPs: day 7 after RD, subretinal injection in diluted sodium hyaluronate (insulin 2 IU/ml, IGF-1 200 ng/ml, metformin 50 mg/ml), compared to PBS controls
Description: Wild-type (C57BL/6J) mice were purchased from Janvier Labs at the age of 8 weeks. Mice were housed in the animal facility under specific pathogen-free condition, in a 12 h/12 h light/dark (100-500 lux) cycle with water and normal diet food available ad libitum. All experimental protocols and procedures were approved by the local animal care ethics committee (N°APAFIS#5201-20160427103344).
RD was induced with a previously described method (Nakazawa et al., 2006, 2007a, 2011). Briefly, mice were anesthetized with an intraperitoneal injection of xylazine hydrochloride (10 mg/kg) and ketamine hydrochloride (100 mg/kg) and pupils were dilated with topical phenylephrine (5%) and tropicamide (0.5%). A 30-gauge needle was first used to create two sclerotomies 1.5 mm posterior to the limbus. A glass needle (with a […] manually beveled tip) connected to a Hamilton syringe filled with diluted sodium hyaluronate (Healon GV®, Alcon) was then introduced into the vitreous cavity through one of the sclerotomy. The tip of the needle was finally inserted into the subretinal space through a peripheral retinotomy and 4 µl of diluted sodium hyaluronate containing or not recombinant human TSP-1 (100 µg/ml, Biotechne), human insulin (2 IU/ml, Umuline NPH), recombinant IGF-1 (200 ng/ml, Biotechne) or metformin (50 mg/ml), was gently injected, detaching approximately two-third of the retina from the underlying RPE.
For treatment with rosiglitazone, mice received intraperitoneal injections of 10 mg/kg rosiglitazone or vehicle (5% DMSO) 3 days before and 4 to 7 days after RD induction.
Eyes with subretinal hemorrhage were excluded from analysis. Mice were sacrificed from 1 to 10 days following RD, according to the experiment.
Eyes were enucleated, fixed in 4% paraformaldehyde for 1 hour at room temperature and sectioned at the limbus; the cornea and lens were discarded. The retinas were peeled from the RPE/choroid/sclera and incubated overnight at 4° C. in PBS-1% triton with the following primary antibodies: peanut agglutinin Alexa fluor® 594 (Thermo Fisher Scientific; 1/100), rabbit polyclonal anti-human cone arrestin antibody (LUMIF-hCAR; 1:10000) and goat polyclonal anti-IBA1 (1/100). After few washes, the retinas were incubated for 2 hours at room temperature with appropriate Alexa Fluor® conjugated secondary antibodies (Thermo Fisher Scientific; 1:500) in PBS-1% triton and nuclei were counterstained with Hoechst (1:1000, Sigma Aldrich). The retinas were flat mounted and viewed with a fluorescence microscope (DM5500, Leica). Images centered on the area with the lowest number of PNA+ cone arrestin+ cells were captured with a confocal laser-scanning microscope (FV1000, Olympus) using a 40X lens. Each cell population was manually counted in a masked fashion. IBA-1+ cells were quantified on flat mounts on the outer segment side of the detached retina while PNA+ cone arrestin+ cells were counted on confocal microscopy Z-stacks using ImageJ software.

[2] = system: PNA+CAR+ cones of C57BL/6J retinal explants; assay: Retinal explants culture, cone quantification; type: cell-based, mouse (C57BL/6J); settings: 5-day retinal explants
Description: C57BL/6J retina were prepared and placed on polycarbonate filters floating on Dulbecco’s modified Eagle’s medium (DMEM, Thermo Fisher Scientific) with the photoreceptors facing down. For the experiment, retinal explants were cultured in high glucose (25 mM) DMEM alone or supplemented with human insulin (Umuline NPH), human insulin and insulin receptor inhibitor (Hydroxy-2-naphthalenylmethylphosphonic acid (HNMPA), Abcam) or vehicle (DMSO) at 37° C. […] For this reason, HNMPA was used at a concentration 10-fold higher than the IC50 (1 mM). Each culture medium was renewed every 36 hours and after 5 days, the retinal explants were carefully removed. Immunohistochemistry and cones quantification were then performed as described for retina below.
Eyes were enucleated, fixed in 4% paraformaldehyde for 1 hour at room temperature and sectioned at the limbus; the cornea and lens were discarded. […] The retinas were flat mounted and viewed with a fluorescence microscope (DM5500, Leica). […] Each cell population was manually counted in a masked fashion. IBA-1+ cells were quantified on flat mounts on the outer segment side of the detached retina while PNA+ cone arrestin+ cells were counted on confocal microscopy Z-stacks using ImageJ software.

PNA+CAR+ cones after addition of insulin receptor inhibitor ([2]; high glucose DMEM with human insulin, HNMPA 1 mM, versus vehicle (DMSO))	Compound	number of PNA+CAR+ cones (cone survival) [1]	numbers of subretinal IBA1+ MPs [1]	number of infiltration of subretinal IBA-1+ MPs ([1]; day 7 of RD, daily intraperitoneal 10 mg/kg from 3 days before and throughout RD, versus vehicle (DMSO 5%))	cone survival (PNA+CAR+ cones) ([2]; high glucose (25 mM) DMEM, human insulin 5 mIU/ml, compared to the control condition)
	CN(C)C(=N)N=C(N)N [metformin, reference compound]	increased	significantly decreased		
	CN(CCOc1ccc(CC2SC(=O)NC2=O)cc1)c1ccccn1 (stereo not drawn) [rosiglitazone, reference compound]			no effect	
	IGF-1: recombinant IGF-1 (Biotechne), insulin-like growth factor	no effect	no effect		
severe loss	O=P(O)(O)C(O)c1ccc2ccccc2c1 (stereo not drawn) [HNMPA, Hydroxy-2-naphthalenylmethylphosphonic acid, reference compound]				
	insulin: human insulin (Umuline NPH)	very significantly increased	did not alter		significantly increased
